From US8648103B2, “Nitrogen-containing aromatic heterocyclyl compound” (Daiichi Sankyo Company, Limited, priority 2008, dated 2014) come the findings set out here.

For the assay, the system named is Human subcutaneous adipocytes. Description: Adipocyte lipolysis assay (suppression of isoproterenol-stimulated fatty acid release). It counts as cell-based. As to conditions: Homo sapiens, Adipocyte; test compound concentration giving 50% fatty acid concentration reduction percentage in culture supernatant; 1 μM isoproterenol, 5 hours incubation; reduction by 100 μM nicotinic acid set at 100%. An excerpt:
The suppressive or promoting activity of a test compound on the lipolysis of neutral fat can be assayed according to an adipocyte lipolysis assay as a cell line assay. If a beta adrenoceptor is stimulated with isoproterenol or the like in adipocytes, lipolysis action in which neutral fat accumulated in the cells is decomposed into fatty acid and glycerol can be promoted, and as a result, the amount of such fatty acid or glycerol released out of the cells can be increased. When a test compound that suppresses lipolysis is added to adipocytes, lipolysis-promoting action by isoproterenol stimulation is reduced, and the concentration of fatty acid or glycerol in a medium is decreased. Accordingly, the suppressive activity of a test compound on lipolysis can be assayed by measuring the reduction percentage of the fatty acid concentration or glycerol concentration in a culture supernatant. Likewise, the promoting activity of a test compound on lipolysis can be assayed by measuring the increase percentage of the fatty acid concentration or glycerol concentration in a medium.
• (1) Human subcutaneous adipocytes disseminated onto a 96 well (Dainippon Sumitomo Pharma Co., Ltd.: F-SA-1096) • (2) Adipocyte Maintenance Medium (Dainippon Sumitomo Pharma Co., Ltd.: AM 1) • (3) Lipolysis assay buffer [137 mM NaCl, 5 mM KCl, 4.2 mM NaHCO3, 1.3 mM CaCl2, 0.5 mM KH2PO4, 0.5 mM MgCl2, 0.5 mM MgSO4, 5 mM Glucose, 20 mM Hepes (pH 7.4), 1% BSA, 1 μM Isoproterenol] • (4) NEFA-C Test Wako (Wako Pure Chemical Industries, Ltd.) Preparation of Screening Materials
In this operation, the actual concentration of the test compound in the buffer was 1/1000 of the above-described concentration.
The above-described subcutaneous adipocytes were cultured in 200 μL of an Adipocyte Maintenance Medium in each well for 7 days. During this culturing operation, the medium was exchanged with a fresh one every 3 days. The medium was exchanged by discarding 100 μL of the medium in each well and then adding 100 μL of a fresh Adipocyte Maintenance Medium to the well. Thereafter, the adipocytes were washed with a Lipolysis assay buffer. Subsequently, 50 μL of a Lipolysis assay buffer that contained the above-described test compound was added to each well, and it was then incubated for 5 hours. In order to obtain the measurement value of the test compound in each concentration, 5 wells on a 96-well plate were used with respect to each concentration. As a positive control of a compound having lipolysis suppressive activity, nicotinic acid was used with reference to a previous report [Green A et. al., J. Biol. Chem., 1992, 267(5), 3223-9].
40 μL of a culture supernatant was extracted from each well, and the fatty acid concentration in the supernatant was then measured. Such fatty acid concentration was measured as follows, using the above-described NEFA-C Test Wako. 80 μL of liquid A included in the kit was added to 40 μL of the culture supernatant extracted from each well, and the obtained mixture was then incubated at 37° C. for 10 minutes. Thereafter, 160 μL of liquid B was added, and the obtained mixture was further incubated at 37° C. for 10 minutes. Thereafter, the absorbance at a wavelength of 550 nm was measured. At the same time, a standard fatty acid solution included in the kit was diluted to prepare a dilution series having a volume of 40 μL. According to the same operations as described above, liquid A and liquid B were added, and the absorbance was then measured. In accordance with instructions included with the kit, a calibration curve was prepared. Based on the thus prepared calibration curve, the fatty acid concentration in the culture supernatant was calculated. The reduction percentage of the fatty acid concentration was calculated with the following formula, setting the reduction percentage obtained by addition of 100 μM (final concentration) of nicotinic acid at 100%. […]
Broadly, the IC50 is the concentration that gives 50% inhibition. Low readings indicate higher potency, high ones lower potency. With `CCc1c(-c2ccc(O)cc2)nsc1CCC(=O)Nc1cn(CC)cc1C(=O)O` [Example 58, 4-{3-[4-Ethyl-3-(4-hydroxyphenyl)isothiazol-5-yl]propanoylamino}-1-ethylpyrrole-3-carboxylic acid], the IC50 was 72 nM. To `CCCCn1cc(NC(=O)CCc2nc(-c3ccc(O)cc3)no2)c(C(=O)O)c1C` [Example 50, 4-{3-[3-(4-Hydroxyphenyl)-1,2,4-oxadiazol-5-yl]propanoyl}amino-1-butyl-2-methylpyrrole-3-carboxylic acid] belongs 823 nM; to `CCn1cc(NC(=O)CCc2onc(-c3ccc(O)cc3)c2Cl)c(C(=O)O)c1` [Example 33, 4-{3-[4-Chloro-(4-hydroxyphenyl)isoxazol-5-yl]propanoyl}amino-1-ethylpyrrole-3-carboxylic acid], 7 nM; to `CCCCn1cc(C(=O)O)c(NC(=O)CCc2nc(-c3ccc(O)cn3)no2)n1` [Example 17, 5-{3-[(5-Hydroxypyridin-2-yl)-1,2,4-oxadiazol-5-yl]propanoyl}amino-2-butylpyrazol-4-carboxylic acid], 49 nM. As for `CCCCn1cc(C(=O)O)c(NC(=O)CCc2nc(-c3ccc(O)cc3)no2)c1C#N` [Example 51, 4-{3-[3-(4-Hydroxyphenyl)-1,2,4-oxadiazol-5-yl]propanoyl}amino-5-cyano-1-butylpyrrole-3-carboxylic acid], the half-inhibitory concentration (IC50) is 264 nM. The result for `CCn1cc(NC(=O)C(F)(F)Cc2cc(-c3ccc(O)cc3)no2)c(C(=O)O)c1` [Example 63, 4-{3-[3-(4-Hydroxyphenyl)isoxazol-5-yl]-2,2-difluoropropanoyl}amino-1-ethylpyrrole-3-carboxylic acid] reads 13 nM. The result for `CCn1cc(NC(=O)CCc2nc(-c3ccc(O)cc3)no2)c(C(=O)O)c1` [Example 12, 4-{3-[3-(4-Hydroxyphenyl)-1,2,4-oxadiazol-5-yl]propanoyl}amino-1-ethylpyrrole-3-carboxylic acid] reads 29 nM; that for `CCc1c(-c2ccc(O)cc2F)noc1CCC(=O)Nc1cn(CC)cc1C(=O)O` [Example 45, 4-{3-[4-Ethyl-3-(4-hydroxy-2-fluorophenyl)isoxazol-5-yl]propanoyl}amino-1-ethylpyrrole-3-carboxylic acid], 9 nM; that for `CCn1cc(NC(=O)C(F)Cc2cnn(-c3ccccc3)c2C2CC2)c(C(=O)O)c1` (stereo not drawn) [Example 30], 42 nM.

`Cn1cc(NC(=O)CCc2ccc3c(Cl)c(O)ccc3c2)c(C(=O)O)c1` [Example 2, 4-[3-(5-Chloro-6-hydroxy-2-naphthyl)propanoyl]amino-1-methylpyrrole-3-carboxylic acid]: the 50% inhibitory concentration (IC50) came out at 535 nM. The result for `O=C(CCc1nc(-c2ccc(O)cc2)no1)Nc1cn(Cc2ccccc2)cc1C(=O)O` [Example 49, 4-{3-[3-(4-Hydroxyphenyl)-1,2,4-oxadiazol-5-yl]propanoyl}amino-1-benzylpyrrole-3-carboxylic acid] reads 135 nM; that for `CCn1cc(NC(=O)CCc2cnc(-c3ccc(O)cc3C)s2)c(C(=O)O)c1` [Example 19, 4-{3-[2-(4-Hydroxy-2-methylphenyl)thiazol-5-yl]propanoyl}amino-1-ethylpyrrole-3-carboxylic acid], 93 nM. As for `Cn1cc(NC(=O)CCc2cnc(-c3ccccc3)s2)c(C(=O)O)c1` [Example 5, 4-{3-(2-Phenylthiazol-5-yl)propanoyl}amino-1-methylpyrrole-3-carboxylic acid], the half-inhibitory concentration (IC50) turned out to be 663 nM. Regarding `CCn1cc(NC(=O)CCc2nnc(-c3ccc(O)cc3)s2)c(C(=O)O)c1` [Example 55, 4-{3-[5-(4-Hydroxyphenyl)[1,3,4]thiadiazole-2-yl]propanoyl}amino-1-ethylpyrrole-3-carboxylic acid], 10 nM corresponded to half-maximal inhibition (IC50). To `CCn1cc(NC(=O)C(F)Cc2sc(-c3ccc(O)cc3)nc2Cl)c(C(=O)O)c1` (stereo not drawn) [Example 37, 4-{3-[4-Chloro-2-(4-hydroxyphenyl)thiazol-5-yl]-2-fluoropropanoyl}amino-1-ethylpyrrole-3-carboxylic acid] belongs 13 nM.
